Laboratory results: paper PMC5073322, “Novel Natural Product-like Caged Xanthones Bearing a Carbamate Moiety Exhibit Antitumor Potency and Anti-Angiogenesis Activity In vivo” (Scientific Reports, 2016)

Key:
A549/taxol = test: MTT antiproliferative assay, Taxol-resistant A549; format: cell-based; conditions: read-out: IC50 A549/taxol; MTT, 72 h; Taxol-resistant A549
Method: (§1) The inhibition of tumour cell growth was measured by a modified tetrazolium (MTT) salt assay, as previously described[39]. Cells were cultured in a 96-well plate and treated with culture medium alone or different concentrations of the compounds. The cells were incubated for 72 h, and then, the MTT assay reagent was added. After a 4 h incubation, the formazan product was quantitated at 570 nm. The IC50 values (the concentrations that gave rise to 50% inhibition of cell viability) were calculated using GraphPad Prism 6 using a variable slope (four parameters).

A549/cisplatin = test: MTT antiproliferative assay, cisplatin-resistant A549; format: cell-based; conditions: read-out: IC50 A549/cisplatin, MTT, 72 h
Method: as §1

HepG2 cells = test: Annexin V/PI apoptosis, flow cytometry; format: cell-based, human; conditions: 48 h
Method: First, the influence of 8n on the cytoskeleton was evaluated using morphological observations. After treatment with 8n, the morphological features of tumour cells changed greatly, and the changed characteristics included the rounding-up of cells, rough membrane surfaces, and more spherical or ovoid cytoplasmic fragments (Fig. 6A). However, the control group, which lacked compound 8n, had good growth. Next, we examined whether the morphological changes were the result of apoptosis induced by compound 8n using DAPI staining and FACScan.
Figure 6 (A) Morphological changes in cancer cells and nuclei. (B) 8n induced apoptosis in HepG2 cells. […] The cells were then were stained with DAPI and observed by fluorescence microscopy. […] (D) The percentages of early apoptotic and total apoptotic cells were quantified using flow cytometry. *p < 0.05; **p < 0.01. […] The expression levels of Caspase-3, Cleaved Caspase-3, Bax, Bcl-2, PARP and cleaved PARP were measured by Western blotting. […]
HepG2 cells were grown on glass coverslips and fixed in 4% paraformaldehyde. […] 8n-induced apoptosis was assessed using a fluorescence microscope and the Annexin V-FITC apoptosis Detection Kit (Beyotime Biotechnology, Shanghai, China) according to the manufacturer’s instructions. […] Stained cells were analysed with a FACScan analyser (argon laser, Becton Dickinson, USA). All data were analysed by using the FlowJo software.

[1] = tested on: Hsp90 client proteins in HepG2 cells; test: Western blot of Hsp90 client proteins; format: cell-based, human; conditions: HepG2, 24 h
Method: Figure 9 (A) The caged compounds (50 μM) inhibited the Hsp90 ATPase activity in a HTRF-based inhibition assay. (B) The IC50 values for the inhibition of Hsp90 ATPase by 8n, 8o and GA as detected by the HTRF Transcreener ADP kit. The test compounds were diluted to obtain a range of concentrations and incubated with Hsp90 and ATP. The amount of ADP generated was detected. (C) Western blots of the Hsp90 client proteins after HepG2 cells were treated with the indicated concentrations of 8n for 24 h. (D) The mRNA expression of VEGF was determined by real-time quantitative reverse-transcriptase polymerase chain reaction (RT-PCR) and analysed by the delta Ct method. The bars represent the means with standard error of the mean (SEM) and the fold change in the VEGF/GAPDH ratio relative to the vehicle-treated group. The different significance levels are indicated as **P < 0.05.
The influence of 8n on the degradation of Hsp90 client proteins was monitored by WB analysis. HepG2 cells were treated with different concentrations of 8n for 24 h. […] HIF-1α, as a key modulator of angiogenesis and an important client protein of Hsp90, was also examined, and the expression of HIF-1α decreased after treatment with 8n.
The cells were washed with PBS and lysed with ice-cold lysis buffer supplemented with protease inhibitors (Roche) for 30 min. The protein content of the supernatants of lysates was determined using a bicinchoninic acid assay. Equal 50 μg total protein samples were separated by sodium dodecyl sulphate polyacrylamide gel electrophoresis (SDS−PAGE) and then transferred onto PVDF membranes (Millipore) at 90 volts for 90 mins. After blocking the membrane with 5% skim milk for 1 h at RT, the membranes were incubated with the primary antibody overnight at 4 °C. Then, the membranes were incubated with a DyLight 800-labeled secondary antibody in the dark for 1 h. Detection of specific proteins was performed with the Odyssey infrared imaging system (LI-COR, Lincoln, Nebraska, USA).

MDA-MB-231 = test: MTT antiproliferative assay, MDA-MB-231; conditions: read-out: IC50 MDA-MB-231; MTT, 72 h
Method: as §1

CC(C)=CCC12OC(C)(C)C3CC(C=C4C(=O)c5c(OC(=O)N6CCC(N7CCCCC7)CC6)cccc5OC431)C2=O (centres unmarked) [Compound 8n]
IC50 (A549/taxol): 1.9 ± 0.12 µM | IC50 (A549/cisplatin): 1.1 ± 0.17 µM | apoptotic cells (HepG2 cells; 0.3 μM): more than 11.89% | apoptotic cells (HepG2 cells; 1 μM): > 46.3% | expression levels of client proteins HER-2, Akt and Erk1/2 [1]: dramatically reduced | expression of HIF-1α [1]: decreased | expression of Hsp70 [1]: changed little | IC50 (MDA-MB-231): 1.2 ± 0.07 µM
